Counter-ions that a name gives are not always drawn.
Columns and labels:
mexB (EC) strain = assay: Efflux ability inhibition effect on drug efflux pump MexB (Test Examples 1 and 3): proliferation (OD595) of mexB (EC) strain with EM or LVFX at 1/4 MIC, EC75; assay type: cell-based, Escherichia coli; settings: Table 53, Test Example 3, same manner as Test Example 1; for EC75, mexB (EC) strain, EM: combined with EM at 1/4 MIC; for EC75, mexB (EC) strain, LVFX: combined with LVFX at 1/4 MIC
Method: The efflux ability inhibition effect of the test compound on the drug efflux pump was evaluated using the bacterial proliferative ability in the presence of EM or LVFX as an index.
EM is a macrolide antibacterial agent and is a drug that is discharged outside the bacteria by MexB and MexY LVFX is a quinolone antibacterial agent and is a drug that is discharged outside the bacteria by MexB and MexY In a case where the test compound has an efflux ability inhibitory ability against the drug efflux pump, the proliferation of bacteria is suppressed by the combined use of EM or LVFX and the test compound, as compared with the case where EM or LVFX is used alone.
A mutant strain (hereinafter, referred to as an “mexB (EC) strain”) obtained by transferring the genes of the main multidrug efflux system MexAB-OprM of Pseudomonas aeruginosa described in Nature, 2013, Vol. 500, pp. 102 to 106 as a plasmid into Escherichia coli strains in which the acrB and tolC genes of the multidrug efflux system AcrAB-TolC were deleted as described in Journal of Infection and Chemotherapy 2008, Vol. 14, pp. 23 to 29, and a gene transfer strain (hereinafter, referred to as an “mexY (EC) strain”) of another main multidrug efflux system MexXY-OprM of Pseudomonas aeruginosa were used for the evaluation of test compounds.
In the mexB (EC) strain, an expression level of MexB of the drug efflux pump is accelerated, and in the mexY (EC) strain, an expression level of MexY of the drug efflux pump is accelerated.
For culturing each Escherichia coli strain, a 96-well plate (amount of culture medium per well: 100 μL) was used and Luria-Bertani broth (LB) culture medium was used. The inoculation amount of the bacteria was set to 10^4 to 5 CFU/well.
The mexB (EC) strain and the mexY (EC) strain were cultured for 16 to 20 hours in a culture medium to which EM or LVFX and test compounds at various concentrations (0 to 800 μM) were added, and the proliferation of the bacterial strains was evaluated by optical turbidity at 595 nm (OD595). The concentration of the antibacterial agents (EM and LVFX) in the culture medium were each set to ¼ of the minimum inhibitory concentration (MIC) (hereinafter, referred to as ¼ MIC) of the single antibacterial agent.
The proliferation of bacteria in a case where the antibacterial agent was added at the concentration of ¼ MIC in a case where the test compound was not added was measured, and compared with the proliferation of bacteria in a case where the test compound was contained, and the lowest concentration of the test compound at which the proliferation was inhibited by 75% or more was defined as the drug efflux pump inhibitory ability of the test compound as 75% inhibitory effect concentration (EC75).
The drug efflux pump inhibitory ability of each test compound in a case of being used in combination with the antibacterial agent against the mexB (EC) strain and the mexY (EC) strain was evaluated as follows according to the value of EC75. • S: EC75≤[…] • A: 12.5 μM<EC75≤25 μM • B: 25 μM<EC75≤100 μM • C: […]
In the same manner as in Test Example 1, the efflux ability inhibition effect of the test compound on the drug efflux pump was evaluated using the bacterial proliferation ability in the presence of EM or LVFX as an index.

S-3769 strain = assay: Combinational effect with antibacterial agent against Pseudomonas aeruginosa (Test Examples 2 and 4): S-3769 strain with AMK or GM at 1/4 MIC, EC99; assay type: cell-based; settings: S-3769 strain, Test Example 4; for EC99, combinational effect with AMK, S-3769 strain: combined with AMK at 1/4 MIC; for EC99, combinational effect with GM, S-3769 strain: combined with GM at 1/4 MIC
Summary of the method: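 P. aeruginosa S-3769 (clinical isolate, MexY overexpressed) grown 16–20 h in CAMHB, 10^4 to 5 CFU/well, with AMK or GM at ¼ MIC plus test compound 0–800 μM. Growth read as OD595; EC99 is the lowest compound concentration giving ≥99% growth inhibition.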

mexB (PA) strain = assay: Combinational effect with antibacterial agent against Pseudomonas aeruginosa (Test Examples 2 and 4): mexB (PA) strain with LVFX, TC or AZT at 1/4 MIC, EC99; assay type: cell-based; settings: mexB (PA) strain, Test Example 4; for EC99, combinational effect with AZT, mexB (PA): combined with AZT at 1/4 MIC; for EC99, combinational effect with LVFX, mexB (PA): combined with LVFX at 1/4 MIC; for EC99, combinational effect with TC, mexB (PA): combined with TC at 1/4 MIC
Summary of the method: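 P. aeruginosa mexB (PA) strain, lacking MexCD-OprJ, MexEF-OprN and MexXY and overexpressing MexAB-OprM, grown 16–20 h in CAMHB (10^4–5 CFU/well) with LVFX, TC or AZT at ¼ MIC plus test compound at 0–800 μM. Growth read as OD595; EC99 is the lowest compound concentration giving ≥99% growth inhibition.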

| SMILES | EC75, mexB (EC) strain, EM (mexB (EC) strain) | EC99, combinational effect with AMK, S-3769 strain (S-3769 strain) | EC99, combinational effect with GM, S-3769 strain (S-3769 strain) | EC99, combinational effect with AZT, mexB (PA) (mexB (PA) strain) | EC99, combinational effect with LVFX, mexB (PA) (mexB (PA) strain) | EC99, combinational effect with TC, mexB (PA) (mexB (PA) strain) | EC75, mexB (EC) strain, LVFX (mexB (EC) strain) |
| --- | --- | --- | --- | --- | --- | --- | --- |
| CCOc1cccc(F)c1CN1CCN(C(=O)[C@H](N)C2CCN(CCc3cc(Cl)ccc3-c3cn(C)nc3C)CC2)CC1 [Example 500, Hydrobromide of (R)-2-amino-2-(1-(5-chloro-2-(1,3-dimethyl-1H-pyrazol-4-yl)phenethyl)piperidin-4-yl)-1-(4-(2-ethoxy-6-fluorobenzyl)piperazin-1-yl)ethan-1-one] | A (12.5 μM<EC75≤25 μM) | A (12.5 μM<EC99≤25 μM) | A (12.5 μM<EC99≤25 μM) | C (100 μM<EC99) | C (100 μM<EC99) | C (100 μM<EC99) | – |
| CCOc1cccnc1CN1CCN(C(=O)[C@H](N)C2CCN(CCc3cc(Cl)ccc3-c3ccccc3)CC2)CC1 [Example 508, Hydrobromide of (R)-2-amino-2-(1-(2-(4-chloro-[1,1-biphenyl]-2-yl)ethyl)piperidin-4-yl)-1-(4-((3-ethoxypyridin-2-yl)methyl)piperazin-1-yl)ethan-1-one] | A (12.5 μM<EC75≤25 μM) | S (EC99≤12.5 μM) | A (12.5 μM<EC99≤25 μM) | B (25 μM<EC99≤100 μM) | C (100 μM<EC99) | B (25 μM<EC99≤100 μM) | – |
| N[C@@H](C(=O)N1CCN(Cc2ncc3ccccn23)CC1)C1CCN(CCc2cc(Cl)ccc2-c2ccccc2)CC1 [Example 518, Hydrobromide of (R)-2-amino-2-(1-(2-(4-chloro-[1,1-biphenyl]-2-yl)ethyl)piperidin-4-yl)-1-(4-(imidazo[1,5-a]pyridin-3-ylmethyl)piperazin-1-yl)ethan-1-one] | – | B (25 μM<EC99≤100 μM) | B (25 μM<EC99≤100 μM) | C (100 μM<EC99) | C (100 μM<EC99) | C (100 μM<EC99) | A (12.5 μM<EC75≤25 μM) |
| Cn1ccnc1CN1CCN(C(=O)[C@H](N)C2CCN(CCc3cc(Cl)ccc3-c3ccccc3)CC2)CC1 [Example 525, Hydrobromide of (R)-2-amino-2-(1-(2-(4-chloro-[1,1-biphenyl]-2-yl)ethyl)piperidin-4-yl)-1-(4-((1-methyl-1H-imidazol-2-yl)methyl)piperazin-1-yl)ethan-1-one] | – | C (100 μM<EC99) | C (100 μM<EC99) | C (100 μM<EC99) | C (100 μM<EC99) | C (100 μM<EC99) | B (25 μM<EC75≤100 μM) |
| C=C(Br)c1ccc(Cl)cc1CCN1CCC([C@@H](N)C(=O)N2CCN(Cc3c(F)cccc3OCC)CC2)CC1 [Example 545, Hydrobromide of (R)-2-amino-2-(1-(2-(1-bromovinyl)-5-chlorophenethyl)piperidin-4-yl)-1-(4-(2-ethoxy-6-fluorobenzyl)piperazin-1-yl)ethan-1-one] | – | S (EC99≤12.5 μM) | S (EC99≤12.5 μM) | B (25 μM<EC99≤100 μM) | B (25 μM<EC99≤100 μM) | B (25 μM<EC99≤100 μM) | A (12.5 μM<EC75≤25 μM) |
| CCOc1cccc(F)c1CN1CCN(C(=O)[C@H](N)C2CCN(CCc3cc(Cl)ccc3C#Cc3ccccc3)CC2)CC1 [Example 546, Hydrobromide of (R)-2-amino-2-(1-(5-chloro-2-(phenylethynyl)phenethyl)piperidin-4-yl)-1-(4-(2-ethoxy-6-fluorobenzyl)piperazin-1-yl)ethan-1-one] | A (12.5 μM<EC75≤25 μM) | S (EC99≤12.5 μM) | S (EC99≤12.5 μM) | C (100 μM<EC99) | C (100 μM<EC99) | A (12.5 μM<EC99≤25 μM) | A (12.5 μM<EC75≤25 μM) |
| CCOc1cccc(F)c1CN1CCN(C(=O)[C@H](N)C2CCN(CCc3cc(-c4ccccc4)ccc3Cl)CC2)CC1 [Example 566, Hydrobromide of (R)-2-amino-2-(1-(2-(4-chloro-[1,1-biphenyl]-3-yl)ethyl)piperidin-4-yl)-1-(4-(2-ethoxy-6-fluorobenzyl)piperazin-1-yl)ethan-1-one] | A (12.5 μM<EC75≤25 μM) | S (EC99≤12.5 μM) | S (EC99≤12.5 μM) | B (25 μM<EC99≤100 μM) | B (25 μM<EC99≤100 μM) | B (25 μM<EC99≤100 μM) | – |
| Cl.N[C@@H](C(=O)N1CCN(Cc2c(O)cccc2Cl)CC1)C1CCN(CCc2cc(Cl)ccc2-c2ccccc2)CC1 [Example 574, Hydrochloride of (R)-2-amino-1-(4-(2-chloro-6-hydroxybenzyl)piperazin-1-yl)-2-(1-(2-(4-chloro-[1,1-biphenyl]-2-yl)ethyl)piperidin-4-yl) ethan-1-one] | – | A (12.5 μM<EC99≤25 μM) | B (25 μM<EC99≤100 μM) | A (12.5 μM<EC99≤25 μM) | A (12.5 μM<EC99≤25 μM) | A (12.5 μM<EC99≤25 μM) | S (EC75≤12.5 M) |
| CSc1ccccc1CN1CCN(C(=O)[C@H](N)C2CCN(CCc3cc(Cl)ccc3-c3cccc(O)c3Cl)CC2)CC1.Cl [Example 613, Hydrochloride of (R)-2-amino-2-(1-(2-(2′,4-dichloro-3′-hydroxy-[1,1-biphenyl]-2-yl)ethyl)piperidin-4-yl)-1-(4-(2-(methylthio)benzyl)piperazin-1-yl) ethan-1-one] | – | S (EC99≤12.5 μM) | A (12.5 μM<EC99≤25 μM) | S (EC99≤12.5 μM) | S (EC99≤12.5 μM) | S (EC99≤12.5 μM) | S (EC75≤12.5 M) |
